Experimental data: patent US20130123271A1, “HETEROCYCLIC COMPOUNDS, THEIR PREPARATION AND THERAPEUTIC APPLICATION” (FOVEA PHARMACEUTICALS, priority 2010, published 2013)
Values after ≈ are worked out from the molar mass of the structure shown.

Legend:
h Src = h Src (Homo sapiens, UniProt P12931); test: LC3000 Src assay (off-chip incubation mobility-shift kinase assay, Caliper LabChip); format: biochemical; conditions: ATP at KM apparent
Experimental: The screening and profiling experiments described here were performed using Caliper Life Sciences' proprietary LabChip™ technology. Caliper LC3000 and EZ Reader II instruments are widely used throughout the drug discovery process for assay development, primary screening, selectivity screening, generation of Structure-Activity Relationships (SARs) and Mechanism of Action (MOA) studies. The LabChip™ technology is particularly well suited for enzymatic ‘targets’ such as kinases, proteases, phosphatases, histone deacetylases (HDAC), phosphodiesterases (PDE), and acyl-transferases. The key benefit of the technology is the separation and direct measurement of substrates and products, which allows for higher signal-to-noise ratios and fewer false positive/negative results. This direct measurement also allows for the identification and elimination of enzymatic activities that are not associated with the kinase reaction of interest.
The off-chip incubation mobility-shift kinase assay uses a microfluidic chip to measure the conversion of a fluorescent peptide substrate to a phosphorylated product. The reaction mixture, from a microtiter plate well, is introduced through a capillary sipper onto the chip, where the nonphosphorylated substrate and phosphorylated product are separated by electrophoresis and detected via laser-induced fluorescence. […] The phosphorylated product migrates through the chip faster than the non-phosphorylated substrate, and signals from the two forms of the peptide appear as distinct peaks. Caliper's data analysis software (HTSWA) determines peak heights, from which the ratio of product to the peak sum P/(P+S) and percent (%) conversion is calculated. This value is used to compare compound wells to control wells present on the plate, and thereby determine the % inhibition values for the compound. The formula used to calculate % inhibition is as follows, where C100% is the average % conversion of the 100% activity wells and C0% is the average % conversion of the 0% activity wells:
(1-(%conversionofsample—C0%)/(C100%−C0%))*100
Compounds were dissolved in 100% DMSO and diluted to 25× the final desired screening concentration. Serial dilutions were performed to obtain the concentrations specified for particular studies. One μl of each concentration was transferred, in duplicate, to a 384-well Greiner microtiter plate. Generally, 12 μL of enzyme buffer containing purified kinase (various suppliers), 100 mM HEPES, pH 7.5, 1 mM DTT (Calbiochem, 2333153), 10 mM MgCl2 (Sigma, M-1028) or 10 mM MnCl2 (Sigma, M-1787) (assay specific), and 0.002% Brij-35 (Sigma, B4184) was added to each well. Compound and enzyme were allowed to pre-incubate for 15 minutes. 12 μL of peptide/ATP buffer containing 100 mM HEPES, pH 7.5, 1.5 μM fluorescein-labeled peptide (specific to kinase of interest), ATP (at KM apparent, Sigma, A9187), and 0.002% Brij-35 was then added to each well to initiate the reaction. Generally, reactions were incubated for 1-1.5 hours at room temperature to obtain adequate (15-40%) conversion of peptide to phosphorylated product in the linear range of the reaction. Reactions were terminated with the addition of 45 μL of Stop Buffer (containing 20 mM EDTA). Plates were then read on the LabChip 3000 using a 12-sipper LabChip. % conversion values and % inhibition values were obtained as described and IC50 curves of compounds were generated using Graphpad Prism Version 4 or 5.01. A nonlinear curve fit using the sigmoidal dose response—variable slope fit was used to graph IC50 curves and determine IC50 values and hillslopes.

Src/Lyn (h) = Src/Lyn (h) (Homo sapiens, UniProt P12931); test: In vitro potency Src/Lyn (h), Table 2; format: biochemical
Sequence of Src/Lyn (h) (P12931 whole entry): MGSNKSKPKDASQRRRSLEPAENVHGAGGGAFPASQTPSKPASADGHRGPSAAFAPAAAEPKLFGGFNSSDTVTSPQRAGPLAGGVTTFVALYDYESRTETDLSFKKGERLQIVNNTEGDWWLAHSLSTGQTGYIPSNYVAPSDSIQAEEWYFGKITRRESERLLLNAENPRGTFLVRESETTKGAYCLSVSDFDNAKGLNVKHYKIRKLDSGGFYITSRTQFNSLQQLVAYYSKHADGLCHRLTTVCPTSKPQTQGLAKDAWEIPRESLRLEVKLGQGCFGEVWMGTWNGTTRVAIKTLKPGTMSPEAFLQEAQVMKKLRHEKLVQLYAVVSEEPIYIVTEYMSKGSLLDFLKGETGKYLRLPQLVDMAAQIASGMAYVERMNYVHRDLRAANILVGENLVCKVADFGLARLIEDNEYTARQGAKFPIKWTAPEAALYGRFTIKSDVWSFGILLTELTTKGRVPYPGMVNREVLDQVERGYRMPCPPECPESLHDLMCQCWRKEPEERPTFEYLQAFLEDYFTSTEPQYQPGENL

[1] = Solubility in HPbCD 7% pH 5; format: physicochemical; conditions: HPbCD 7% solution, aqueous with cosolvent or surfactant or cyclodextrin, read-out: Solubility HPbCD 7% pH 5 (mg/ml) measured
[2] = Ussing chamber permeation study through rabbit cornea; format: in vitro ADME; conditions: 37° C., 0.5 cm2 rabbit cornea
Experimental: Ussing chambers were used for the permeation study each day of experiment.
3 mL of solution were placed in donor side of Ussing chambers and 3 mL of Ringer solution were in receiver side. Freshly removed rabbit corneal tissue were placed between the two half chambers.
Temperature was maintained at 37° C. during all the flux study and oxygenation was provided by a continuous perfusion of carbogen (oxygen/carbonic acid) (95/5),
Rabbits were euthanized and the 6 corneas were removed and used immediately. 500 μL of receptor side liquid were removed from Ussing chambers and replaced by fresh buffer. The samples were analyzed immediately (less than 10 hours after collection).
100 μL of donor side liquid were removed from Ussing chambers and not replaced. The samples were diluted immediately (less than 1 hour) after collection and analyzed less than 10 hours after dilution. Analysis was performed on HPLC (Stationary phase: C18 (Particle size: 3 μm Length: 5 cm, using a gradient from 5 to 95% ACN/water (0.1% formic acid)).
At the end of the sampling period, all corneas were discarded.

Colour of the compound = format: physicochemical; conditions: powder
[3] = system: choroidal neovascularisation; test: Rat model of laser-induced choroidal neovascularization (CNV); format: in vivo, rat (Brown Norway); conditions: topical solution 6 mg/mL (10 μL) two times daily, 14 days after laser induction
Experimental: We investigated the efficacy of topical administration of compound 25 of the invention in reducing choroidal neovascularisation in the rat (Brown Norway, 8 weeks of age).
On day 1, CNV was performed by laser photocoagulation-induced rupture of Bruch's membrane as previously described (Edelman and Casto 2000). An Argon green laser irradiation was delivered through the slit lamp for induce photocoagulation. In each eye, 6-7 focal laser spots were applied concentrically approximately two optic discs from the center. Immediately afterwards, rats were treated with topical solution 6 mg/mL (10 μL) two times daily until sacrifice. 14 days after laser induction of CNV blood vessels were visualized on retinal pigment epithelium-choroid-sclera flat-mount by immunostaining with isolectin B4.
Assessment of CNV response to treatment was performed after capture and area measurement of immunostained vessels representing CNV at the site of laser burn.
Pixel area of vascular budding was traced by 2 trained masked investigators and converted to μm^2.

Sequence of h Src (P12931 whole entry): as above

Structure (SMILES): OCc1cc(Nc2nc3ccc(-c4cc(O)ccc4Cl)cn3n2)ccn1 [compound 13, 4-Chloro-3-[2-(2-hydroxymethyl-pyridin-4-ylamino)-[1,2,4]triazolo[1,5-a]pyridin-6-yl]-phenol]
- IC50 (h Src): 27 nM
- IC50 (Src/Lyn (h)): 27 nM
- solubility [1]: 2.38 mg/mL (≈ 6.47 mM)
- Flux between 2 and 4 hours through 0.5 cm2 of rabbit cornea (μg/h/cm2) [2]: 13 μg/h/cm2
- Colour (Colour of the compound): White

Structure (SMILES): OCc1cc(CO)cc(Nc2nc3ccc(-c4cc(O)ccc4Cl)cn3n2)c1 [compound 5, 3-[2-(3,5-Bis-hydroxymethyl-phenylamino)-[1,2,4]triazolo[1,5-a]pyridin-6-yl]-4-chloro-phenol]
- IC50 (h Src): 5 nM
- IC50 (Src/Lyn (h)): 5 nM
- solubility [1]: 1.3 mg/mL (≈ 3.28 mM)
- Flux between 2 and 4 hours through 0.5 cm2 of rabbit cornea (μg/h/cm2) [2]: 13 μg/h/cm2
- Colour (Colour of the compound): White

Structure (SMILES): OCCN1CCN(c2ccc(Nc3nc4ccc(-c5cc(O)ccc5Cl)cn4n3)cn2)CC1 [compound 10, 4-Chloro-3-(2-{6-[4-(2-hydroxy-ethyl)-piperazin-1-yl]-pyridin-3-ylamino}-[1,2,4]triazolo[1,5-a]pyridin-6-yl)-phenol]
- IC50 (h Src): 14 nM
- IC50 (Src/Lyn (h)): 14 nM
- solubility [1]: 5.69 mg/mL (≈ 12.2 mM)
- Flux between 2 and 4 hours through 0.5 cm2 of rabbit cornea (μg/h/cm2) [2]: 30 μg/h/cm2
- Colour (Colour of the compound): White

Structure (SMILES): OCc1cc(Nc2ncc3cc(-c4cc(O)ccc4Cl)ccc3n2)ccn1 [Compound 43, 4-Chloro-3-[2-(2-hydroxymethyl-pyridin-4-ylamino)-quinazolin-6-yl]-phenol]
- IC50 (h Src): 0.7 nM
- IC50 (Src/Lyn (h)): 0.7 nM
- solubility [1]: 1.5 mg/mL (≈ 3.96 mM)
- Flux between 2 and 4 hours through 0.5 cm2 of rabbit cornea (μg/h/cm2) [2]: 6 μg/h/cm2
- Colour (Colour of the compound): Pale

Structure (SMILES): OCCn1cnc2cc(Nc3ncc4cc(-c5cc(O)ccc5Cl)ccc4n3)ccc21 [Compound 45, 4-Chloro-3-{2-[1-(2-hydroxy-ethyl)-1H-benzoimidazol-5-ylamino]-quinazolin-6-yl}-phenol]
- IC50 (h Src): 0.5 nM
- IC50 (Src/Lyn (h)): 1 nM
- solubility [1]: 2.3 mg/mL (≈ 5.33 mM)
- Flux between 2 and 4 hours through 0.5 cm2 of rabbit cornea (μg/h/cm2) [2]: 8 μg/h/cm2
- Colour (Colour of the compound): Pale

Structure (SMILES): Cc1nc(Nc2nc3ccc(-c4cc(O)ccc4Cl)cn3n2)cc(N2CCN(CCO)CC2)n1 [Compound 27, 4-Chloro-3-(2-{6-[4-(2-hydroxy-ethyl)-piperazin-1-yl]-2-methyl-pyrimidin-4-ylamino}-[1,2,4]triazolo[1,5-a]pyridin-6-yl)-phenol]
- IC50 (h Src): 83 nM
- IC50 (Src/Lyn (h)): 83 nM
- solubility [1]: > 10 mg/mL
- Flux between 2 and 4 hours through 0.5 cm2 of rabbit cornea (μg/h/cm2) [2]: 19 μg/h/cm2
- Colour (Colour of the compound): White

Structure (SMILES): Oc1ccc(Cl)c(-c2ccc3nc(Nc4ccc(OCCN5CCCC5)nc4)nn3c2)c1 [Compound 25, 4-Chloro-3-{2-[6-(2-pyrrolidin-1-yl-ethoxy)-pyridin-3-ylamino]-[1,2,4]triazolo[1,5-a]pyridin-6-yl}-phenol]
- IC50 (h Src): 23 nM
- IC50 (Src/Lyn (h)): 23 nM
- solubility [1]: 6.5 mg/mL (≈ 14.4 mM)
- Flux between 2 and 4 hours through 0.5 cm2 of rabbit cornea (μg/h/cm2) [2]: 14 μg/h/cm2
- Colour (Colour of the compound): White
- reduction of CNV compared to control [3]: 15%

Structure (SMILES): OCc1cc(CO)cc(Nc2ncc3cc(-c4cc(O)ccc4Cl)ccc3n2)c1 [compound 16, 3-[2-(3,5-Bis-hydroxymethyl-phenylamino)-quinazolin-6-yl]-4-chloro-phenol]
- IC50 (h Src): 0.1 nM
- IC50 (Src/Lyn (h)): < 1 nM
- solubility [1]: 1.2 mg/mL (≈ 2.94 mM)
- Flux between 2 and 4 hours through 0.5 cm2 of rabbit cornea (μg/h/cm2) [2]: 17 μg/h/cm2
- Colour (Colour of the compound): Pale

Structure (SMILES): Cc1cc(Nc2ncc3cc(-c4cc(O)ccc4Cl)ccc3n2)cc(N2CCN(CCO)CC2)c1 [Compound 46, 4-Chloro-3-(2-{3-[4-(2-hydroxy-ethyl)-piperazin-1-yl]-5-methyl-phenylamino}-quinazolin-6-yl)-phenol]
- IC50 (h Src): 0.8 nM
- IC50 (Src/Lyn (h)): 0.8 nM
- solubility [1]: > 10 mg/mL
- Flux between 2 and 4 hours through 0.5 cm2 of rabbit cornea (μg/h/cm2) [2]: 13 μg/h/cm2
- Colour (Colour of the compound): Pale

Structure (SMILES): Oc1ccc(Cl)c(-c2ccc3nc(Nc4ccc(OCCN5CCCC5)cn4)nn3c2)c1 [compound 8, 4-Chloro-3-{2-[5-(2-pyrrolidin-1-yl-ethoxy)-pyridin-2-ylamino]-[1,2,4]triazolo[1,5-a]pyridin-6-yl}-phenol]
- IC50 (h Src): 100 nM

Structure (SMILES): Cc1cc(Nc2nc3ccc(-c4cc(O)ccc4Cl)cn3n2)cc(N2CCN(CCO)CC2)c1 [Compound 28, 4-Chloro-3-(2-{3-[4-(2-hydroxy-ethyl)-piperazin-1-yl]-5-methyl-phenylamino}-[1,2,4]triazolo[1,5-a]pyridin-6-yl)-phenol]
- IC50 (h Src): 3 nM
- IC50 (Src/Lyn (h)): 3 nM
- solubility [1]: 7.5 mg/mL (≈ 15.7 mM)
- Flux between 2 and 4 hours through 0.5 cm2 of rabbit cornea (μg/h/cm2) [2]: 8 μg/h/cm2
- Colour (Colour of the compound): White
